This passage reports Activity and IC50 results from ChEMBL document CHEMBL1764978, “Cysteine mapping in conformationally distinct kinase nucleotide binding sites: application to the design of selective covalent inhibitors” (J Med Chem, 2011).

Experiment [1] deals with Vascular endothelial growth factor receptor 1 (Homo sapiens) (UniProt P17948). Put plainly: Binding affinity to human Flt1 assessed as residual binding at 10 uM by site dependent competitive binding assay.
For experiment [2], the target named is Serine/threonine-protein kinase 17A (Homo sapiens) (UniProt Q9UEE5). Nature of the experiment: Binding affinity to human DRAK1 valine residue assessed as residual binding at 10 uM by site dependent competitive binding assay.
Experiment [3] has as its target Fibroblast growth factor receptor 4 (Homo sapiens) (UniProt P22455). Nature of the experiment: Binding affinity to human Fgfr4 assessed as residual binding at 10 uM by site dependent competitive binding assay.
Experiment [4] addresses Tyrosine-protein kinase Blk (Homo sapiens) (UniProt P51451). Put plainly: Binding affinity to human BLK serine residue assessed as residual binding at 10 uM by site dependent competitive binding assay.
Experiment [5] addresses Ephrin type-A receptor 8 (Homo sapiens) (UniProt P29322). Put plainly: Binding affinity to human EPHA8 tyrosine residue assessed as residual binding at 10 uM by site dependent competitive binding assay.
Experiment [6] addresses Cyclin-G-associated kinase (Homo sapiens) (UniProt O14976). Nature of the experiment: Binding affinity to human GAK isoleucine residue assessed as residual binding at 10 uM by site dependent competitive binding assay.
In experiment [7] the target is Fibroblast growth factor receptor 3 (Homo sapiens) (UniProt P22607). Put plainly: Binding affinity to human Fgfr3 assessed as residual binding at 10 uM by site dependent competitive binding assay.
Experiment [8] deals with Tyrosine-protein kinase Fer (Homo sapiens) (UniProt P16591). Put plainly: Binding affinity to human Fer assessed as residual binding at 10 uM by site dependent competitive binding assay.
The target of experiment [9] is Vascular endothelial growth factor receptor 3 (Homo sapiens) (UniProt P35916). Nature of the experiment: Binding affinity to human Flt4 assessed as residual binding at 10 uM by site dependent competitive binding assay.
Experiment [10] has as its target Serine/threonine-protein kinase MARK2 (Homo sapiens) (UniProt Q7KZI7). Put plainly: Binding affinity to human Mark2 isoleucine residue assessed as residual binding at 10 uM by site dependent competitive binding assay.
The target of experiment [11] is Tyrosine-protein kinase ABL1 (Homo sapiens, UniProt P00519). Nature of the experiment: Inhibition of human wild type ABL1 assessed as [gamma33P]ATP incorporation into poly-Ala-Glu-Lys-Tyr after 60 mins by microplate scintillation counting.
Tyrosine-protein kinase ABL1, sequence (P00519 whole entry): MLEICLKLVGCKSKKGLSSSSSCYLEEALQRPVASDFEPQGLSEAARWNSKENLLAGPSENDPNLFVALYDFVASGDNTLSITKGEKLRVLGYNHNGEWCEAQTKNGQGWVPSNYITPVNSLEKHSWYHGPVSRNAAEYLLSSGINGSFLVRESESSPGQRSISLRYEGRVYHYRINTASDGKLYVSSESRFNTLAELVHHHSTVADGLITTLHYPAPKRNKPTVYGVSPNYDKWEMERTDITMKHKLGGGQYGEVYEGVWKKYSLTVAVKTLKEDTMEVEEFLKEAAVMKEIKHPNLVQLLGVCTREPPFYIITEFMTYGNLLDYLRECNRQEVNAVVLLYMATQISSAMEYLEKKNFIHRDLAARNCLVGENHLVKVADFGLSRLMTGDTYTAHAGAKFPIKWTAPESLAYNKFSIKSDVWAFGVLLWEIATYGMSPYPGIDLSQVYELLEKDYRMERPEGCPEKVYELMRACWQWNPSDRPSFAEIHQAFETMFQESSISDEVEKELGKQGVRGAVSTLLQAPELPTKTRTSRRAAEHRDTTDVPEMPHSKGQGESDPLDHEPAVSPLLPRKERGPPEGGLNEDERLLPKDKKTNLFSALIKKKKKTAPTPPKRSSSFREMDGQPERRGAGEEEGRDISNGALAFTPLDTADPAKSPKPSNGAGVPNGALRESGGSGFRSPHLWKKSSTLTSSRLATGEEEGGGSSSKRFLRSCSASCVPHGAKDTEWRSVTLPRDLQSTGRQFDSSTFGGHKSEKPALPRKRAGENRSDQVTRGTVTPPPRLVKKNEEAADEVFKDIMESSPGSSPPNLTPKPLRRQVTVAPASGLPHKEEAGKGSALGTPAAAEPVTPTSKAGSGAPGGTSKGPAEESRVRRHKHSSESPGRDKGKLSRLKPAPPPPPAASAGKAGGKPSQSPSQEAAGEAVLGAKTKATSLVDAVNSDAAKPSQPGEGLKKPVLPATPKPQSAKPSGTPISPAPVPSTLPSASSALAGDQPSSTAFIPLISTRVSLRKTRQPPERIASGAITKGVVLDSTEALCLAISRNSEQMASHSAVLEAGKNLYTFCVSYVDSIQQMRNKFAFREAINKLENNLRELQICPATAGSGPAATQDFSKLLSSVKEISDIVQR
The target of experiment [12] is T1, Mast/stem cell growth factor receptor Kit (Homo sapiens, UniProt P10721). Nature of the experiment: Inhibition of human wild type KIT assessed as [gamma33P]ATP incorporation into polyGluTyr after 60 mins by microplate scintillation counting.
T1 sequence (P10721 whole entry): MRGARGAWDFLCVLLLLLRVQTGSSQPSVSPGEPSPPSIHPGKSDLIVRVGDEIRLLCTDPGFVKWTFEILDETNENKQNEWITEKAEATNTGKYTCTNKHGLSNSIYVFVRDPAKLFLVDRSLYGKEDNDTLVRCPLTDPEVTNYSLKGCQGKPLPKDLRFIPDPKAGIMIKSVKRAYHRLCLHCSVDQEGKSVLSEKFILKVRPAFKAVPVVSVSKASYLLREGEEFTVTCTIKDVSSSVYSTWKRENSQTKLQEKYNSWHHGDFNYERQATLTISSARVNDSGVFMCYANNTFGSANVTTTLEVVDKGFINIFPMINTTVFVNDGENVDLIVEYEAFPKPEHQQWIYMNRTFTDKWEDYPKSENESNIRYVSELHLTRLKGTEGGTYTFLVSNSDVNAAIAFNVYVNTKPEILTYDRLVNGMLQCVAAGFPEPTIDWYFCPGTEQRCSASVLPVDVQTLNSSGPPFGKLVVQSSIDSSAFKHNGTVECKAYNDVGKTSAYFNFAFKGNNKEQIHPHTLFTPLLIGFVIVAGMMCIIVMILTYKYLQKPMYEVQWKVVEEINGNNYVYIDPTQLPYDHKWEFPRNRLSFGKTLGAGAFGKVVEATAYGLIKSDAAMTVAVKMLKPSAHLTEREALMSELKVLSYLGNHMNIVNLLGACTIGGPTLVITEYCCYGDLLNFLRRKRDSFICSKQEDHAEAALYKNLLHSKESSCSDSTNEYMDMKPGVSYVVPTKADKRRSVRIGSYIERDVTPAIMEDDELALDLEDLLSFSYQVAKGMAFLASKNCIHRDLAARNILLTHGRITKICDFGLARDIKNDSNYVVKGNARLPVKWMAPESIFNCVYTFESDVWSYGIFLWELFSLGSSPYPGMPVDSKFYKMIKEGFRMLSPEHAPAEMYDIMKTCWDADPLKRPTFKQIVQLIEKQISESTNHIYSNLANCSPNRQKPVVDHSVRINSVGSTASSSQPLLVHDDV
For experiment [13], the target named is Tyrosine-protein kinase ABL2 (Homo sapiens) (UniProt P42684). Put plainly: Binding affinity to human ABL2 phenylalanine residue assessed as residual binding at 1 uM by site dependent competitive binding assay.
In experiment [14] the test system is Serine/threonine-protein kinase B-raf (Homo sapiens), P15056 [V600E]. Put plainly: Binding affinity to human BRAF V600E mutant isoleucine residue assessed as residual binding at 1 uM by site dependent competitive binding assay.
The target in experiment [15] is Epithelial discoidin domain-containing receptor 1 (Homo sapiens) (UniProt Q08345). Nature of the experiment: Binding affinity to human DDR1 phenylalanine residue assessed as residual binding at 1 uM by site dependent competitive binding assay.
The target of experiment [16] is Discoidin domain-containing receptor 2 (Homo sapiens) (UniProt Q16832). Nature of the experiment: Binding affinity to human DDR2 phenylalanine residue assessed as residual binding at 1 uM by site dependent competitive binding assay.
Experiment [17] concerns the target T2, Platelet-derived growth factor receptor alpha (Homo sapiens, UniProt P16234). Nature of the experiment: Inhibition of human wild type PDGFRalpha assessed as [gamma33P]ATP incorporation into poly-Ala-Glu-Lys-Tyr after 60 mins by microplate scintillation counting.
The target in experiment [18] is Fibroblast growth factor receptor 3 (Homo sapiens) (UniProt P22607). Put plainly: Binding affinity to human Fgfr3 assessed as residual binding at 1 uM by site dependent competitive binding assay.
Experiment [19] addresses Tyrosine-protein kinase Blk (Homo sapiens) (UniProt P51451). Nature of the experiment: Binding affinity to human BLK serine residue assessed as residual binding at 1 uM by site dependent competitive binding assay.
Experiment [20] concerns the target Calcium/calmodulin-dependent protein kinase kinase 1 (Homo sapiens) (UniProt Q8N5S9). Put plainly: Binding affinity to human CAMKK1 isoleucine residue assessed as residual binding at 1 uM by site dependent competitive binding assay.
For experiment [21], the target named is Tyrosine-protein kinase Fer (Homo sapiens) (UniProt P16591). Put plainly: Binding affinity to human Fer assessed as residual binding at 1 uM by site dependent competitive binding assay.
Experiment [22] deals with Macrophage colony-stimulating factor 1 receptor (Homo sapiens) (UniProt P07333). Put plainly: Binding affinity to human CSF1R assessed as residual binding at 1 uM by site dependent competitive binding assay.
Experiment [23] deals with T2, Platelet-derived growth factor receptor alpha. Put plainly: Binding affinity to human PDGFRalpha assessed as residual binding at 1 uM by site dependent competitive binding assay.
The target of experiment [24] is Platelet-derived growth factor receptor beta (Homo sapiens) (UniProt P09619). Nature of the experiment: Binding affinity to human PDGFRbeta assessed as residual binding at 1 uM by site dependent competitive binding assay.
Platelet-derived growth factor receptor beta (Homo sapiens), sequence (P09619 whole entry): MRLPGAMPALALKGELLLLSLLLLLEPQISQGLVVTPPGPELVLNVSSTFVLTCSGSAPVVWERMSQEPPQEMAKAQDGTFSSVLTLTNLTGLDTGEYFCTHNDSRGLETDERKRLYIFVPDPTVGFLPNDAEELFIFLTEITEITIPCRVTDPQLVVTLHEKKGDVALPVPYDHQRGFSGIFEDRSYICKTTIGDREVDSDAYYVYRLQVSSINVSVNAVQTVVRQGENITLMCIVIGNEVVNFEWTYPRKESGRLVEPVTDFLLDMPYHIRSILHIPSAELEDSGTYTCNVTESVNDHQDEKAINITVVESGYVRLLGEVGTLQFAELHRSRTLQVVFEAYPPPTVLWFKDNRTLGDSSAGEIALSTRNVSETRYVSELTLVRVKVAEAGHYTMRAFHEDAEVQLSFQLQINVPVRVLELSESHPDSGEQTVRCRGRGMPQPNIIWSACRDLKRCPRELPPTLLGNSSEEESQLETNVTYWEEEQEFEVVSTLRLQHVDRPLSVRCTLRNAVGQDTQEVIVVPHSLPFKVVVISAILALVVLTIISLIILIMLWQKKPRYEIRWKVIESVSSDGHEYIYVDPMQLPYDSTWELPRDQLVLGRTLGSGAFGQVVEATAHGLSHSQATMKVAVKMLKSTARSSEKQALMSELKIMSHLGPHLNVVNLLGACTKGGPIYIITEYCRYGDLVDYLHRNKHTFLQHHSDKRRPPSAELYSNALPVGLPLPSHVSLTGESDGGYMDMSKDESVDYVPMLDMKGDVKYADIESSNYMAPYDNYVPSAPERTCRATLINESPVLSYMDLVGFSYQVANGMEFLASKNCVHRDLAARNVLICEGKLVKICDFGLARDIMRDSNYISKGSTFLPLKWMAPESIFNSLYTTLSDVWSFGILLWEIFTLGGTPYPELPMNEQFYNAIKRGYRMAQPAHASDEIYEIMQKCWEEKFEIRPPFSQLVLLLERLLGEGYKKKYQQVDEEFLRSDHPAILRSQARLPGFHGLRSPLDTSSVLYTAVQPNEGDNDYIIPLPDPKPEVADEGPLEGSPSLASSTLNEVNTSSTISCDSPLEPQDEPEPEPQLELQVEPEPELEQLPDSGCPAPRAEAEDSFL
For experiment [25], the target named is Mitogen-activated protein kinase 9 (Homo sapiens) (UniProt P45984). Put plainly: Binding affinity to human Jnk2 isoleucine residue assessed as residual binding at 1 uM by site dependent competitive binding assay.
Experiment [26] concerns the target T1, Mast/stem cell growth factor receptor Kit. Put plainly: Binding affinity to human Kit cysteine residue assessed as residual binding at 1 uM by site dependent competitive binding assay.
The test system of experiment [27] is Mast/stem cell growth factor receptor Kit (Homo sapiens), P10721 [V559D]. Put plainly: Binding affinity to human Kit V559D mutant cysteine residue assessed as residual binding at 1 uM by site dependent competitive binding assay.
The target in experiment [28] is Serine/threonine-protein kinase 3 (Homo sapiens) (UniProt Q13188). Nature of the experiment: Binding affinity to human Mst2 […] residue assessed as residual binding at 1 uM by site dependent competitive binding assay.
Experiment [29] addresses Tyrosine-protein kinase Lck (Homo sapiens) (UniProt P06239). Nature of the experiment: Binding affinity to human LCK tyrosine residue assessed as residual binding at 1 uM by site dependent competitive binding assay.
In experiment [30] the target is Vascular endothelial growth factor receptor 3 (Homo sapiens) (UniProt P35916). Put plainly: Binding affinity to human Flt4 assessed as residual binding at 1 uM by site dependent competitive binding assay.
The target of experiment [31] is Fibroblast growth factor receptor 1 (Homo sapiens) (UniProt P11362). Nature of the experiment: Binding affinity to human Fgfr1 assessed as residual binding at 1 uM by site dependent competitive binding assay.
Experiment [32] relates to Mast/stem cell growth factor receptor Kit (Homo sapiens), P10721 [V559D,V654A]. Nature of the experiment: Binding affinity to human Kit V559D/V654A mutant cysteine residue assessed as residual binding at 1 uM by site dependent competitive binding assay.
For experiment [33], the target named is Tyrosine-protein kinase Lyn (Homo sapiens) (UniProt P07948). Put plainly: Binding affinity to human LYN tyrosine residue assessed as residual binding at 1 uM by site dependent competitive binding assay.
In experiment [34] the target is Calcium/calmodulin-dependent protein kinase kinase 2 (Homo sapiens) (UniProt Q96RR4). Nature of the experiment: Binding affinity to human CAMKK2 isoleucine residue assessed as residual binding at 1 uM by site dependent competitive binding assay.
Experiment [35] addresses Protein-tyrosine kinase 2-beta (Homo sapiens) (UniProt Q14289). Nature of the experiment: Binding affinity to human Pyk2 assessed as residual binding at 1 uM by site dependent competitive binding assay.
Experiment [36] has as its target T1, Mast/stem cell growth factor receptor Kit. Put plainly: Binding affinity to human Kit assessed as residual binding at 1 uM by site dependent competitive binding assay.
Experiment [37] concerns the target Fibroblast growth factor receptor 2 (Homo sapiens) (UniProt P21802). Put plainly: Binding affinity to human Fgfr2 assessed as residual binding at 1 uM by site dependent competitive binding assay.
Experiment [38] deals with Macrophage colony-stimulating factor 1 receptor (Homo sapiens) (UniProt P07333). Nature of the experiment: Binding affinity to human CSF1R cysteine residue assessed as residual binding at 1 uM by site dependent competitive binding assay.
In experiment [39] the target is Ephrin type-A receptor 8 (Homo sapiens) (UniProt P29322). Nature of the experiment: Binding affinity to human EPHA8 tyrosine residue assessed as residual binding at 1 uM by site dependent competitive binding assay.
For experiment [40], the target named is Platelet-derived growth factor receptor beta (Homo sapiens) (UniProt P09619). Put plainly: Binding affinity to human PDGFRbeta cysteine residue assessed as residual binding at 1 uM by site dependent competitive binding assay.
The target of experiment [41] is Cyclin-dependent kinase-like 1 (Homo sapiens) (UniProt Q00532). Put plainly: Binding affinity to human CDKL1 assessed as residual binding at 1 uM by site dependent competitive binding assay.
Experiment [42] addresses Mitogen-activated protein kinase 8 (Homo sapiens) (UniProt P45983). Nature of the experiment: Binding affinity to human Jnk1 isoleucine residue assessed as residual binding at 1 uM by site dependent competitive binding assay.
For experiment [43], the target named is Serine/threonine-protein kinase MARK2 (Homo sapiens) (UniProt Q7KZI7). Put plainly: Binding affinity to human Mark2 isoleucine residue assessed as residual binding at 1 uM by site dependent competitive binding assay.
Serine/threonine-protein kinase MARK2 (Homo sapiens), sequence (Q7KZI7 whole entry): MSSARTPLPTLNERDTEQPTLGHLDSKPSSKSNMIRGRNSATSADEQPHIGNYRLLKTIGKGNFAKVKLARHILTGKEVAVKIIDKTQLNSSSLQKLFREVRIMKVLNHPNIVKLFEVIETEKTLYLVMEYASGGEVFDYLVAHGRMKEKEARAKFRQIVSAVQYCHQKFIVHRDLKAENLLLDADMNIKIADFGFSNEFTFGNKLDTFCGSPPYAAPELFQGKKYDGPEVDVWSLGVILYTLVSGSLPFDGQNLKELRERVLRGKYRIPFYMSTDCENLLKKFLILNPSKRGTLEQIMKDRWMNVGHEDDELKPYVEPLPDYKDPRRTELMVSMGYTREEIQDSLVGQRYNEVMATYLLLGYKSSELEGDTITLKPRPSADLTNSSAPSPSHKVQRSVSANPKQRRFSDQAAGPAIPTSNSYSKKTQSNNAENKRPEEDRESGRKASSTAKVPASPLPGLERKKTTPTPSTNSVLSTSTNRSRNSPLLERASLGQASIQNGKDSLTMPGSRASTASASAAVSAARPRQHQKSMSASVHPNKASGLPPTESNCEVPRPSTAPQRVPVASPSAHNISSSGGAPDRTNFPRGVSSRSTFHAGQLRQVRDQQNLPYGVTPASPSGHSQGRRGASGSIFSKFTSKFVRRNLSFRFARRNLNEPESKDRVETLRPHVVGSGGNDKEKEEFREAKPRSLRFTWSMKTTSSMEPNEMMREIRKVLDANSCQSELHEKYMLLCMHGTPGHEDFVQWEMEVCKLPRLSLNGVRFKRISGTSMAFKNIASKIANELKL
In experiment [44] the target is Mitogen-activated protein kinase 10 (Homo sapiens) (UniProt P53779). Nature of the experiment: Binding affinity to human Jnk3 isoleucine residue assessed as residual binding at 1 uM by site dependent competitive binding assay.
Experiment [45] addresses Fibroblast growth factor receptor 4 (Homo sapiens) (UniProt P22455). Nature of the experiment: Binding affinity to human Fgfr4 assessed as residual binding at 1 uM by site dependent competitive binding assay.
In experiment [46] the target is Vascular endothelial growth factor receptor 2 (Homo sapiens) (UniProt P35968). Nature of the experiment: Binding affinity to human Vegfr2 assessed as residual binding at 1 uM by site dependent competitive binding assay.
The target in experiment [47] is Serine/threonine-protein kinase 17A (Homo sapiens) (UniProt Q9UEE5). Put plainly: Binding affinity to human DRAK1 valine residue assessed as residual binding at 1 uM by site dependent competitive binding assay.
Experiment [48] deals with Receptor-type tyrosine-protein kinase FLT3 (Homo sapiens) (UniProt P36888). Put plainly: Binding affinity to human Flt3 assessed as residual binding at 1 uM by site dependent competitive binding assay.
The target in experiment [49] is Cyclin-G-associated kinase (Homo sapiens) (UniProt O14976). Nature of the experiment: Binding affinity to human GAK isoleucine residue assessed as residual binding at 1 uM by site dependent competitive binding assay.
For experiment [50], the target named is T2, Platelet-derived growth factor receptor alpha. Nature of the experiment: Binding affinity to human PDGFRalpha cysteine residue assessed as residual binding at 1 uM by site dependent competitive binding assay.
The target in experiment [51] is Tyrosine-protein kinase JAK3 (Homo sapiens) (UniProt P52333). Put plainly: Binding affinity to human Jak3 domain 1 assessed as residual binding at 1 uM by site dependent competitive binding assay.
Experiment [52] concerns the target Tyrosine-protein kinase Fes/Fps (Homo sapiens) (UniProt P07332). Put plainly: Binding affinity to human Fes assessed as residual binding at 1 uM by site dependent competitive binding assay.
Experiment [53] has as its target Vascular endothelial growth factor receptor 1 (Homo sapiens) (UniProt P17948). Nature of the experiment: Binding affinity to human Flt1 assessed as residual binding at 1 uM by site dependent competitive binding assay.

T2 sequence (P16234 whole entry): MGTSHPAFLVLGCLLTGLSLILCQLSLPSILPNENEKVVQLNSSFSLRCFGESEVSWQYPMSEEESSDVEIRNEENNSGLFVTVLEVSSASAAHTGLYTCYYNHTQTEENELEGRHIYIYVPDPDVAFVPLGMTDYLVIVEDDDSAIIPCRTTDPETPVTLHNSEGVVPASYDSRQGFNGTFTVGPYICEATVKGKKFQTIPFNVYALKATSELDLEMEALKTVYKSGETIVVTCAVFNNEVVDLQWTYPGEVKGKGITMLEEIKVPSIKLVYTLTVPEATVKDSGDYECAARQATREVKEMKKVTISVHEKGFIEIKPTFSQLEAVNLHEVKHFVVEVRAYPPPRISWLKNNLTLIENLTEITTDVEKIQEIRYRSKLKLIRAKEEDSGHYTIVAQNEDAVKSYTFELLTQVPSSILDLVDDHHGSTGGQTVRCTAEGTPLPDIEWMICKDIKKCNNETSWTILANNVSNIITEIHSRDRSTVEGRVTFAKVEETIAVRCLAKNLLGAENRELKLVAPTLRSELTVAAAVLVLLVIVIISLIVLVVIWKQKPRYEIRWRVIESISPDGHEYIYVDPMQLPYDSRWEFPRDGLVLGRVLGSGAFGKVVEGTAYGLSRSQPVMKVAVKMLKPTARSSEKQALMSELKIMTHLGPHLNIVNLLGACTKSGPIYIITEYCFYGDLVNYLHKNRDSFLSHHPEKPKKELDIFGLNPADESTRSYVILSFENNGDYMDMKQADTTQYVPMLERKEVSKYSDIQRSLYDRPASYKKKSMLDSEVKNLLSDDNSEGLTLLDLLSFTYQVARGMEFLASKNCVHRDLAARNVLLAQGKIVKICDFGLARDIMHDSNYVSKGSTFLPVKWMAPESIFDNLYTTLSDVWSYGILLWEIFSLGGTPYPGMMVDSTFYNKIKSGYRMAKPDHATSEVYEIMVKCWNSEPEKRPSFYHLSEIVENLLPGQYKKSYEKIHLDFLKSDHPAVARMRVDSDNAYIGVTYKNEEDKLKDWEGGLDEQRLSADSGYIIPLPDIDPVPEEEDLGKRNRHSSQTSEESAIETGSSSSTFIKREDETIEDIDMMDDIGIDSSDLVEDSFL

Turning to `Cc1ccc(NC(=O)c2ccc(CN3CCN(C)CC3)cc2)cc1Nc1nccc(-c2cccnc2)n1`, the Activity in experiment [1] was found to be 78%; in experiment [2], 5.2%; in experiment [3] it was 99%; in [4] it was 0.8%; in [5] it was 7.2%; in experiment [6] it was 5.1%. Further, the Activity came out at 97% in experiment [7], 91% in [8], 85% in experiment [9] and 8.8% in [10].
Turning to `Cc1ccc(NC(=O)c2ccc(CN)cc2)cc1Nc1nccc(-c2cccnc2)n1`, the IC50 (usually the concentration needed to halve the response being measured) was over 20 µM in experiment [11] and 788 nM in experiment [12].
The like results for `C/C=C/C(=O)NCc1ccc(C(=O)Nc2ccc(C)c(Nc3nccc(-c4cccnc4)n3)c2)cc1` were, in that order, over 20 µM and 4710 nM.
`Cc1ccc(NC(=O)c2ccc(CCl)cc2)cc1Nc1nccc(-c2cccnc2)n1`: the IC50 in experiment [12] was 245 nM.
Take `Cc1ccc(NC(=O)c2ccc(CNC(=O)CCl)cc2)cc1Nc1nccc(-c2cccnc2)n1`: the Activity in experiment [13] is 49%; in [14], 4.6%; in experiment [15], 0.5%; in experiment [16], 31%; in experiment [18], 100%; in experiment [19], 69%. Further, the Activity in experiment [20] was 100%; in experiment [21] it was 95%; in experiment [22] it was 5%; in experiment [23], 0.7%; in [24], 0%; in [25] it was 4.6%. Also, the Activity was 0% in experiment [26]; 0% in experiment [27]; 100% in experiment [28]; 64% in experiment [29]; 100% in experiment [30]; 100% in experiment [31]. In addition, the Activity was 7% in experiment [32]; 76% in experiment [33]; 100% in [34]; 68% in experiment [35]; 0% in experiment [36]; 92% in experiment [37]. The Activity in experiment [38] came out at 5%; in [39], 100%; in experiment [40], 0%; in experiment [41], 100%; in [42], 0.45%; in experiment [43], 100%. Also, the Activity is 1.9% in experiment [44]; 100% in experiment [45]; 64% in experiment [46]; 100% in [47]; 81% in [48]; 18% in [49]. Besides, the Activity turned out to be 0.7% in [50], 100% in [51], 100% in experiment [52] and 86% in experiment [53]. Moreover, the IC50 in [17] was 1080 nM; in [11], over 20 µM; in [12], 788 nM.
In the case of `C=C(C)C(=O)NCc1ccc(C(=O)Nc2ccc(C)c(Nc3nccc(-c4cccnc4)n3)c2)cc1`, the IC50 in experiment [11] is over 20 µM; in experiment [12], 2740 nM.
